Each structure is given as a SMILES string.

The test system of one data set is DU-145. Put plainly: MTT cytotoxicity assay, DU-145. It counts as cell-based, human. To be noted: mean ± SD. An excerpt: (§1) In this investigation, two experimental groups of cancer cell lines were employed: human prostate carcinoma cells lacking prostate-specific membrane antigen (PSMA) and androgen receptor independence (DU-145 and HTB-81™), alongside human prostate carcinoma cells (PC-3 and CRL-1435™). The control group comprised non-cancerous human fibroblasts (MRC-5 and CCL-171™). All cell lines utilized in this study were procured from the American Type Culture Collection (ATCC, Manassas, VA, United States). The cells were maintained in a complete medium containing high-glucose DMEM, supplemented with 10% fetal bovine serum and 200 mM L-glutamine (reagents sourced from Sigma-Aldrich, St. Louis, MO, United States). Cultivation of the cells was conducted in 25 cm^2 flasks (Thermo Fisher Scientific, Waltham, MA, United States) at 37°C under conditions of absolute humidity and a 5% CO2 atmosphere. The cytotoxic effects of three newly synthesized Pd(II) complexes were assessed on DU-145, PC-3, and MRC-5 cell lines using the MTT assay. For comparison, the cytotoxicity of cisplatin, a clinically established chemotherapeutic agent, was also evaluated across all cell lines. Cells were harvested during their exponential growth phase, counted, and seeded at a density of 5 × 10^3 cells per well in 96-well culture plates. […] The treated cells were incubated under identical conditions (37°C, 5% CO2, absolute humidity) for durations of 24, 48, and 72 h. After incubation, the medium was removed, and an MTT solution was added to each well. The cells were then incubated for an additional 2 h to facilitate the reduction of thiazolyl blue tetrazolium bromide in the MTT solution. Subsequently, the MTT solution was carefully removed, and the resulting formazan crystals were solubilized in DMSO. […] All experiments were performed in triplicate and repeated across three independent runs. Cell viability was calculated as a percentage by dividing the absorbance of treated cells (minus blank absorbance) by the average absorbance of untreated control cells (minus blank absorbance) and multiplying by 100. % of the viable cells=absorbance of treated cell−absorbance of blank / absorbance of untreated cell−absorbance of blank * 100 […] This analysis was performed using Microsoft Office Excel 2010, leveraging its curve-fitting capabilities to determine precise inhibitory concentrations.

In a further data set the test system is PC-3. Nature of the data set: MTT cytotoxicity assay, PC-3. To be noted: mean ± SD. Format: cell-based, human.
From the text: as §1

A further data set relates to MRC-5. Nature of the data set: MTT cytotoxicity assay, MRC-5 fibroblasts. The settings on record: mean ± SD. Format: cell-based, human.
From the text: as §1

The subject of data set [1] is DU-145 cells. Nature of the data set: Mitochondrial membrane potential by JC-10 staining. It counts as cell-based, human. To be noted: DU-145, IC50 of complex, 48 h. The procedure: JC-10 gathers in the mitochondria of living cells, forming red fluorescence aggregates. On the other hand, JC-10 is also present in a monomeric cytosolic form and dyes cells green in necrotic and apoptotic cells. Mitochondrial membrane potential was assessed using the dye JC-10. DU-145 cells were seeded at a density of 2 × 10^4 cells per well in 24-well cell culture plates and incubated in complete DMEM medium at 37°C with 5% CO2 for 24 h. […] The cells were treated for 20 min with 2.5 μM JC-10 dye in warm PBS. JC-10 accumulation in cells was evaluated using a Gramma Libero FLUO500T trinocular inverted fluorescence microscope. We used the 525/590 nm fluorescence emission ratio for our quantification analysis. We captured images using the 2020 S-EYE Setup Microscope camera and the S-EYE_Setup-1.6.0.11 software. The ImageJ program was used to analyse the images.

In data set [2] the test system is DU-145 cells. Nature of the data set: Clonogenic assay. It counts as cell-based, human. To be noted: DU-145, four concentrations, 2 weeks colony formation. The procedure:
In this assay ([Franken et al., 2006]), cells are seeded at low densities and incubated for 2 weeks to allow colony formation, with colonies defined as clusters of ≥50 cells. Treated and untreated cells are compared to assess survival fractions (SF), calculated by normalizing the plating efficiency (PE) of treated cells to that of controls. Colonies are fixed with 6% glutaraldehyde, stained with 0.5% crystal violet, and colonies were quantified using ImageJ software version 1.54 with a standardized macro. Images were first converted to 8-bit grayscale, and background noise was reduced using the “Subtract Background” function. Thresholding was applied to isolate colonies, and the “Analyze Particles” tool was used to count colonies based on defined size and circularity parameters. Only colonies with an area corresponding to ≥50 cells and a circularity range of 0.3–1.0 were included. Overlapping or merged colonies were excluded unless distinct borders were visually discernible. All image processing steps were applied consistently across samples to ensure reproducibility. Data are represented as dose-response survival curves.
Plating efficiency is calculated by the following formula: PE=Number of colonies/Number of cells seeded×100%
Survival fraction is calculated when all plating efficiencies are calculated according to the formula: SF=PEtreated/PEcontrol

For another data set, the system named is CT-DNA. Nature of the data set: DNA viscosity measurement. Format: binding, calf. The settings on record: 0.01 mM DNA in PBS, [2c]/[DNA] 0.1-1. Here is the method: All chemicals were used without purification, and all of them are commercially available. ^1H NMR and ^13C NMR spectra were recorded in DMSO-d6 as a solvent with a Bruker Ascend 400 (400 MHz) spectrometer. Chemical shifts are given in parts per million (δ) down from tetramethylsilane as the internal standard. For elemental analyses (C, H, O, N) were used Elementar Vario MICRO elemental analyzer. IR spectra were obtained on Perkin Elmer FT-IR spectrometer, two equipped with a DTGS detector. Mass spectra were recorded at 6546 LC/Q-TOF (Agilent, Santa Clara, CA, SAD) equipped with Jet Stream ion source and connected with 1,290 Infinity II HPLC (Agilent, Santa Clara, CA, AD). Data were collected every second in the mass area 100–1,000 Da. Molar conductance of the Pd(II) complexes was measured on freshly prepared 10^–3 M solutions in DMSO at room temperature using Crison EC-Meter basic 30+conductivity cell. The viscosity of the DNA solution was measured in the absence and presence of increasing amounts of 2c. To the 0.01 mM DNA solution in PBS, a corresponding ratio of examinated compound was added at ratio [2c]/[DNA]: 0.1; 0.2; 0.3; 0.4; 0.5; 0.6; 0.7; 0.8; 0.9 and 1. Data are presented as a plot of (η/η0)1/3 vs. ratio of [2c]/[DNA], where η is the DNA viscosity in the presence of the compound, η0 is the viscosity of DNA in buffer alone.

Data set [3] in a line: Stability in DMSO by UV-Vis spectra. Format: physicochemical. The settings on record: UV-Vis 200–600 nm after t = 0, 24, and 48 h. The procedure:
UV-Vis spectra were recorded in DMSO as a solvent, at room temperature, and the data of the absorption wavelength maxima (λ max) are given in Table 3 and Figure 3. […] Further, two more bands are attributed to the ligand 1b, the medium intensity π → π* and very weak and broad n→π* transition of the imine group. Upon coordination, the π → π* band of the imine group decreases in intensity, while the new band at 393 nm, attributed to Ligand-to-Metal Charge Transfer (LMCT), appears ([Felicio et al., 2001]; [Hussain et al., 2019]). The stability of Schiff base metal complexes is a key factor influencing their performance during biological evaluations. Unstable complexes, prone to hydrolysis or degradation, may lead to reduced efficacy, altered mechanisms of action, or false-positive/negative outcomes. Palladium (II), typically adopting a square-planar geometry ([Kostić et al., 2003]), forms stable complexes with bidentate Schiff base ligands, but its coordination environment can be sensitive to ligand exchange. […] In order to determine the stability of selected complex 2b in DMSO, a series of UV-Vis spectra in the range of 200–600 nm were recorded after t = 0, 24, and 48 h (Supplementary Figure SI17) ([Marjanović et al., 2023]).

Data set [4] is described as follows: Stability assay in PBS by UV-Vis spectra. It counts as physicochemical. The settings on record: ∼10^–5 M, less than 0.7% DMSO, UV-Vis after 0, 24 and 48 h. Here is the method: The complex used for the testing was dissolved in the minimal amount of DMSO (dimethylsulfoxide) possible and diluted with PBS of ∼10^–5 M in concentration and less than 0.7% DMSO. UV-Vis spectra were recorded after 0, 24 and 48 h in the range 200–600 nm. Absorption spectra were recorded on UV–Vis Perkin–Elmer Lambda 35 spectrophotometer equipped with water thermostated cell.

As to `Oc1ccc(CN=Cc2ccccc2[O][Pd][O]c2ccccc2C=NCc2ccc(O)cc2)cc1` [Complex 2a], the IC50 in the data set on DU-145 (DU-145, 24 h drug exposure) amounted to 83.6 ± 9.2 µM; with DU-145 (DU-145, 48 h drug exposure) it was 17.5 ± 1.6 µM; in the data set on DU-145 (DU-145, 72 h drug exposure), 9.3 ± 0.9 µM; in the data set on PC-3 (PC-3, 24 h drug exposure), 94.1 ± 9.1 µM; with PC-3 (PC-3, 48 h drug exposure) it was 89.8 ± 8.8 µM; in the data set on PC-3 (PC-3, 72 h drug exposure), 79.3 ± 7.7 µM. Besides, the IC50 in the data set on MRC-5 (MRC-5, 24 h drug exposure) was determined as 94.3 ± 9.7 µM; in the data set on MRC-5 (MRC-5, 48 h drug exposure), 92.4 ± 9.1 µM; in the data set on MRC-5 (MRC-5, 72 h drug exposure), 83 ± 8.1 µM. Moreover, the “increase of JC-10 green/JC-10 red ratio compared to untreated cells” value (“increase of JC-10 green/JC-10 red ratio” for short) in the data set on DU-145 cells [1] is reported as 2.1 fold.
Turning to `C(=NCCc1c[nH]c2ccccc12)c1ccccc1[O][Pd][O]c1ccccc1C=NCCc1c[nH]c2ccccc12` [Complex 2c], the IC50 in the data set on DU-145 (DU-145, 24 h drug exposure) amounted to 48.4 ± 5.1 µM; in the data set on DU-145 (DU-145, 48 h drug exposure) it was 11 ± 1.2 µM; with DU-145 (DU-145, 72 h drug exposure), 7.1 ± 0.8 µM; with PC-3 (PC-3, 24 h drug exposure), 38.4 ± 3.6 µM; in the data set with PC-3 (PC-3, 48 h drug exposure), 12.5 ± 1.1 µM; with PC-3 (PC-3, 72 h drug exposure), 8.6 ± 0.9 µM. In addition, the IC50 with MRC-5 (MRC-5, 24 h drug exposure) is 80.7 ± 8.1 µM; in the data set with MRC-5 (MRC-5, 48 h drug exposure), 75.6 ± 7.7 µM; in the data set on MRC-5 (MRC-5, 72 h drug exposure), 42.3 ± 4.1 µM. Besides, the “long-term antiproliferative effect (survival fraction)” value in the data set on DU-145 cells [2] is recorded as “most pronounced effect”. In addition, the “increase of JC-10 green/JC-10 red ratio” value with DU-145 cells [1] is reported as 3.2 fold. The “DNA binding mode from viscosity” value with CT-DNA is given as “intercalates very weakly”.
Take `Oc1ccc(CCN=Cc2ccccc2[O][Pd][O]c2ccccc2C=NCCc2ccc(O)cc2)cc1` [Complex 2b]: the IC50 in the data set with DU-145 (DU-145, 24 h drug exposure) is 75.9 ± 7.3 µM; in the data set with DU-145 (DU-145, 48 h drug exposure) it was 19.2 ± 2.1 µM; in the data set with DU-145 (DU-145, 72 h drug exposure), 8.7 ± 0.8 µM; in the data set with PC-3 (PC-3, 24 h drug exposure), 75.2 ± 7.2 µM; in the data set on PC-3 (PC-3, 48 h drug exposure), 58.6 ± 5.6 µM; in the data set with PC-3 (PC-3, 72 h drug exposure) it was 29.1 ± 2.8 µM. The IC50 in the data set with MRC-5 (MRC-5, 24 h drug exposure) came out at 87.7 ± 8.8 µM; with MRC-5 (MRC-5, 48 h drug exposure), 78.5 ± 7.7 µM; in the data set with MRC-5 (MRC-5, 72 h drug exposure), 49.2 ± 5.1 µM. For the same compound, the “increase of JC-10 green/JC-10 red ratio” value with DU-145 cells [1] was found to be 2.9 fold. Further, the “stability in DMSO” value in data set [3] is “retaining its structural integrity without signs of ligand displacement or decomposition”. Further, in data set [4], the “stability in solution (PBS)” value is on record as “sufficient stability in solution under physiologically relevant conditions”.
`N.N.[Cl][Pt][Cl]` [CP, cisplatin, reference compound]: the IC50 with DU-145 (DU-145, 24 h drug exposure) came out at 22.3 ± 2.4 µM; with DU-145 (DU-145, 48 h drug exposure), 11.4 ± 1.1 µM; in the data set with DU-145 (DU-145, 72 h drug exposure) it was 8.2 ± 0.8 µM; with PC-3 (PC-3, 48 h drug exposure) it was 29.7 ± 3.1 µM; with PC-3 (PC-3, 72 h drug exposure), 21.9 ± 2.2 µM; in the data set on MRC-5 (MRC-5, 24 h drug exposure) it was 90.1 ± 9.2 µM. In addition, the IC50 in the data set with MRC-5 (MRC-5, 48 h drug exposure) came to 41.9 ± 4.4 µM; with MRC-5 (MRC-5, 72 h drug exposure) it was 24.4 ± 0.8 µM.

These data come from publication PMC12310718, “Evaluation of newly synthesized schiff base Pd(II) complexes for prostate cancer treatment through in vitro cytotoxicity and molecular mechanistic studies” (Frontiers in Chemistry, 2025).
